Measured values taken from US6399542B1, “Alkoxyimino-substituted bicyclic compounds compositions containing the same and method of making such compounds” (Agro-Kanesho Co., Ltd., priority 1997, dated 2002).

tested on: Rhizoctonia solani; experiment: Effect on Rice sheath blight (preventive spray test); conditions: conc. of active ingredient 20 ppm, 10 days after inoculation
Experimental: An emulsion of a compound of the present invention prepared in Preparation Example 2 was diluted with water and uniformly sprayed on 5 rice plant seedlings (variety: Koshihikari) in 4.5-leaf stage in each plastic pot having a diameter of 6 cm, with a spray gun. One day after the spraying, the seedlings were bundled at the second sheath with a string. Colonies of Rhizoctonia solani previously cultured in PSA culture medium were bored with a cork borer to obtain pieces having a diameter of 4 mm. The piece was put in the bundle, and kept in a high-humidity room at 25° C. until the examination. Ten days after the inoculation, the degree of the disease was examined, and the preventive rate (effect of inhibiting the disease) was calculated on the basis of the following standard:
Preventive rate=[1-D′/C′]×100
C′: Severity in untreated section
D′: Severity in treated section.

SMILES	Preventive rate (%)
CNC(=O)C(=NOC)c1ccccc1COc1ccc2c(c1C)OC(C)CC2=NOC (racemic) [d-11]	75%
CCON=C1COc2c1ccc(OCc1ccccc1/C(=N\OC)C(=O)OC)c2C [a-35]	80%
CNC(=O)/C(=N/OC)c1ccccc1COc1ccc2c(c1C)OC(C)C2=NOC (centres unmarked) [b-7]	86%
CON=C(C(=O)OC)c1ccccc1COc1ccc2c(c1)OCCC2=NOC [c-4]	53%
CNC(=O)C(=NOC)c1ccccc1COc1cc2c(cc1C)C(=NOC)CCO2 [c-27]	93%

same assay, conditions: conc. of active ingredient 100 ppm, 10 days after inoculation

SMILES	Preventive rate (%)
CNC(=O)C(=NOC)c1ccccc1COc1ccc2c(c1C)OC(C)CC2=NOC (racemic) [d-11]	96%
CCON=C1COc2c1ccc(OCc1ccccc1/C(=N\OC)C(=O)OC)c2C [a-35]	84%
CNC(=O)/C(=N/OC)c1ccccc1COc1ccc2c(c1C)OC(C)C2=NOC (centres unmarked) [b-7]	98%
CON=C(C(=O)OC)c1ccccc1COc1ccc2c(c1)OCCC2=NOC [c-4]	98%
CNC(=O)C(=NOC)c1ccccc1COc1cc2c(cc1C)C(=NOC)CCO2 [c-27]	94%

tested on: Puccinia recondita; experiment: Effect on Wheat brown rust (preventive spray test); type: in vivo; conditions: conc. of active ingredient 4 ppm, 7 days after inoculation

SMILES	Preventive rate (%)
CNC(=O)C(=NOC)c1ccccc1COc1ccc2c(c1C)OC(C)CC2=NOC (racemic) [d-11]	100%
CNC(=O)/C(=N/OC)c1ccccc1COc1ccc2c(c1C)OC(C)C2=NOC (centres unmarked) [b-7]	99%
CNC(=O)C(=NOC)c1ccccc1COc1cc2c(cc1C)C(=NOC)CCO2 [c-27]	96%

same assay, conditions: conc. of active ingredient 20 ppm, 7 days after inoculation

SMILES	Preventive rate (%)
CNC(=O)C(=NOC)c1ccccc1COc1ccc2c(c1C)OC(C)CC2=NOC (racemic) [d-11]	100%
CNC(=O)/C(=N/OC)c1ccccc1COc1ccc2c(c1C)OC(C)C2=NOC (centres unmarked) [b-7]	100%
CNC(=O)C(=NOC)c1ccccc1COc1cc2c(cc1C)C(=NOC)CCO2 [c-27]	100%

same assay, conditions: conc. of active ingredient 100 ppm, 7 days after inoculation

SMILES	Preventive rate (%)
CNC(=O)C(=NOC)c1ccccc1COc1ccc2c(c1C)OC(C)CC2=NOC (racemic) [d-11]	100%
CNC(=O)/C(=N/OC)c1ccccc1COc1ccc2c(c1C)OC(C)C2=NOC (centres unmarked) [b-7]	100%
CON=C(C(=O)OC)c1ccccc1COc1ccc2c(c1)OCCC2=NOC [c-4]	100%
CNC(=O)C(=NOC)c1ccccc1COc1cc2c(cc1C)C(=NOC)CCO2 [c-27]	100%

tested on: Pyricularia oryzae; experiment: not given; type: in vivo; conditions: Rice blast; conc. of active ingredient 4 ppm; 7 days after inoculation

SMILES	Preventive rate (%)
CNC(=O)C(=NOC)c1ccccc1COc1ccc2c(c1C)OC(C)CC2=NOC (racemic) [d-11]	68%

same assay, conditions: Rice blast; conc. of active ingredient 20 ppm; 7 days after inoculation

SMILES	Preventive rate (%)
CNC(=O)C(=NOC)c1ccccc1COc1ccc2c(c1C)OC(C)CC2=NOC (racemic) [d-11]	78%
CNC(=O)/C(=N/OC)c1ccccc1COc1ccc2c(c1C)OC(C)C2=NOC (centres unmarked) [b-7]	89%
CON=C(C(=O)OC)c1ccccc1COc1ccc2c(c1)OCCC2=NOC [c-4]	86%
CNC(=O)C(=NOC)c1ccccc1COc1cc2c(cc1C)C(=NOC)CCO2 [c-27]	95%

same assay, conditions: Rice blast; conc. of active ingredient 100 ppm; 7 days after inoculation

SMILES	Preventive rate (%)
CNC(=O)C(=NOC)c1ccccc1COc1ccc2c(c1C)OC(C)CC2=NOC (racemic) [d-11]	95%
CNC(=O)/C(=N/OC)c1ccccc1COc1ccc2c(c1C)OC(C)C2=NOC (centres unmarked) [b-7]	100%
CON=C(C(=O)OC)c1ccccc1COc1ccc2c(c1)OCCC2=NOC [c-4]	90%
CNC(=O)C(=NOC)c1ccccc1COc1cc2c(cc1C)C(=NOC)CCO2 [c-27]	100%

tested on: Psecidoperonospora cubensis; experiment: Effect on Cucumber downy mildew (preventive spray test); type: in vivo; conditions: conc. of active ingredient 4 ppm, 7 days after inoculation

SMILES	Preventive rate (%)
CNC(=O)C(=NOC)c1ccccc1COc1ccc2c(c1C)OC(C)CC2=NOC (racemic) [d-11]	93%
CNC(=O)/C(=N/OC)c1ccccc1COc1ccc2c(c1C)OC(C)C2=NOC (centres unmarked) [b-7]	89%
CNC(=O)C(=NOC)c1ccccc1COc1cc2c(cc1C)C(=NOC)CCO2 [c-27]	86%

same assay, conditions: conc. of active ingredient 20 ppm, 7 days after inoculation

SMILES	Preventive rate (%)
CNC(=O)C(=NOC)c1ccccc1COc1ccc2c(c1C)OC(C)CC2=NOC (racemic) [d-11]	96%
CNC(=O)/C(=N/OC)c1ccccc1COc1ccc2c(c1C)OC(C)C2=NOC (centres unmarked) [b-7]	93%
CON=C(C(=O)OC)c1ccccc1COc1ccc2c(c1)OCCC2=NOC [c-4]	94%
CNC(=O)C(=NOC)c1ccccc1COc1cc2c(cc1C)C(=NOC)CCO2 [c-27]	93%

same assay, conditions: conc. of active ingredient 100 ppm, 7 days after inoculation

SMILES	Preventive rate (%)
CNC(=O)C(=NOC)c1ccccc1COc1ccc2c(c1C)OC(C)CC2=NOC (racemic) [d-11]	100%
CNC(=O)/C(=N/OC)c1ccccc1COc1ccc2c(c1C)OC(C)C2=NOC (centres unmarked) [b-7]	96%
CON=C(C(=O)OC)c1ccccc1COc1ccc2c(c1)OCCC2=NOC [c-4]	100%
CNC(=O)C(=NOC)c1ccccc1COc1cc2c(cc1C)C(=NOC)CCO2 [c-27]	96%

tested on: Erysiphe graminis; experiment: Effects on Barley powdery mildew (preventive spray test); type: in vivo; conditions: conc. of active ingredient 4 ppm, lesions counted seven days after inoculation

SMILES	Preventive rate (%)
CCON=C1COc2c1ccc(OCc1ccccc1/C(=N\OC)C(=O)OC)c2C [a-35]	98%
CNC(=O)/C(=N/OC)c1ccccc1COc1ccc2c(c1C)OC(C)C2=NOC (centres unmarked) [b-7]	99%
CNC(=O)C(=NOC)c1ccccc1COc1cc2c(cc1C)C(=NOC)CCO2 [c-27]	100%

same assay, conditions: conc. of active ingredient 20 ppm, lesions counted seven days after inoculation

SMILES	Preventive rate (%)
CNC(=O)C(=NOC)c1ccccc1COc1ccc2c(c1C)OC(C)CC2=NOC (racemic) [d-11]	99%
CCON=C1COc2c1ccc(OCc1ccccc1/C(=N\OC)C(=O)OC)c2C [a-35]	100%
CNC(=O)/C(=N/OC)c1ccccc1COc1ccc2c(c1C)OC(C)C2=NOC (centres unmarked) [b-7]	100%
CNC(=O)C(=NOC)c1ccccc1COc1cc2c(cc1C)C(=NOC)CCO2 [c-27]	100%

same assay, conditions: conc. of active ingredient 100 ppm, lesions counted seven days after inoculation

SMILES	Preventive rate (%)
CNC(=O)C(=NOC)c1ccccc1COc1ccc2c(c1C)OC(C)CC2=NOC (racemic) [d-11]	99%
CCON=C1COc2c1ccc(OCc1ccccc1/C(=N\OC)C(=O)OC)c2C [a-35]	100%
CNC(=O)/C(=N/OC)c1ccccc1COc1ccc2c(c1C)OC(C)C2=NOC (centres unmarked) [b-7]	100%
CNC(=O)C(=NOC)c1ccccc1COc1cc2c(cc1C)C(=NOC)CCO2 [c-27]	100%

tested on: Chochliobolus miyabeanus; experiment: Effect on Rice brown spot (preventive spray test); type: in vivo; conditions: conc. of active ingredient 4 ppm, 7 days after inoculation

SMILES	Preventive rate (%)
CNC(=O)/C(=N/OC)c1ccccc1COc1ccc2c(c1C)OC(C)C2=NOC (centres unmarked) [b-7]	56%

same assay, conditions: conc. of active ingredient 20 ppm, 7 days after inoculation

SMILES	Preventive rate (%)
CNC(=O)/C(=N/OC)c1ccccc1COc1ccc2c(c1C)OC(C)C2=NOC (centres unmarked) [b-7]	95%
CON=C(C(=O)OC)c1ccccc1COc1ccc2c(c1)OCCC2=NOC [c-4]	80%

same assay, conditions: conc. of active ingredient 100 ppm, 7 days after inoculation

SMILES	Preventive rate (%)
CNC(=O)/C(=N/OC)c1ccccc1COc1ccc2c(c1C)OC(C)C2=NOC (centres unmarked) [b-7]	96%
CON=C(C(=O)OC)c1ccccc1COc1ccc2c(c1)OCCC2=NOC [c-4]	80%

tested on: Phytophthora infestans; experiment: not given; type: in vivo; conditions: Tomato late blight; conc. of active ingredient 20 ppm; 5 days after inoculation

SMILES	Preventive rate (%)
CNC(=O)/C(=N/OC)c1ccccc1COc1ccc2c(c1C)OC(C)C2=NOC (centres unmarked) [b-7]	95%
CON=C(C(=O)OC)c1ccccc1COc1ccc2c(c1)OCCC2=NOC [c-4]	97%
CNC(=O)C(=NOC)c1ccccc1COc1cc2c(cc1C)C(=NOC)CCO2 [c-27]	98%

same assay, conditions: Tomato late blight; conc. of active ingredient 100 ppm; 5 days after inoculation

SMILES	Preventive rate (%)
CNC(=O)/C(=N/OC)c1ccccc1COc1ccc2c(c1C)OC(C)C2=NOC (centres unmarked) [b-7]	100%
CON=C(C(=O)OC)c1ccccc1COc1ccc2c(c1)OCCC2=NOC [c-4]	97%
CNC(=O)C(=NOC)c1ccccc1COc1cc2c(cc1C)C(=NOC)CCO2 [c-27]	100%
